According to US8933230B2, “Phosphorus-containing group-substituted quinoline, its preparation process, medical composition containing the compounds and application” (priority 2011, dated 2015):

Legend:
Assay in all cases: KinomeScan kinase panel
Format in all cases: binding
MEK4 = molecular target: T1, MEK4 (Homo sapiens, UniProt P45985)
T1 construct: purchased DiscoveRx Corporation (KinomeScan)
Outline: (§1)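 Inhibitory effect at a 1000 nM single dose, determined in KinomeScan's 442-kinase panel.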

CAMK2A = molecular target: T2, CAMK2A (Homo sapiens, UniProt Q9UQM7)
T2 construct: purchased DiscoveRx Corporation (KinomeScan)
Outline: as §1

TNK2 = molecular target: T3, TNK2 (Homo sapiens, UniProt Q07912)
T3 construct: purchased DiscoveRx Corporation (KinomeScan)
Outline: as §1

RET (V804L) = molecular target: T4, RET (V804L) (Homo sapiens, UniProt P07949, V804L)
T4 construct: purchased DiscoveRx Corporation
Outline: as §1

EGFR(L858R) = molecular target: T5, EGFR(L858R) (Homo sapiens, UniProt P00533, L858R)
T5 construct: purchased DiscoveRx Corporation (KinomeScan)
Outline: as §1

PDGFRB = molecular target: T6, PDGFRB (Homo sapiens, UniProt P09619)
T6 construct: purchased DiscoveRx Corporation (KinomeScan panel)
Outline: as §1

DDR1 = molecular target: T7, DDR1 (Homo sapiens, UniProt Q08345)
T7 construct: purchased DiscoveRx Corporation (KinomeScan)
Outline: as §1

PIK3CA = molecular target: T8, PIK3CA (Homo sapiens, UniProt P42336)
T8 construct: purchased DiscoveRx Corporation (KinomeScan)
Outline: as §1

MAP4K4 = molecular target: T9, MAP4K4 (Homo sapiens, UniProt O95819)
T9 construct: purchased DiscoveRx Corporation (KinomeScan)
Outline: as §1

PIK3C2B = molecular target: T10, PIK3C2B (Homo sapiens, UniProt O00750)
T10 construct: purchased DiscoveRx Corporation (KinomeScan)
Outline: as §1

NDR1 = molecular target: T11, NDR1 (Homo sapiens, UniProt Q15208)
T11 construct: purchased DiscoveRx Corporation (KinomeScan)
Outline: as §1

PIM3 = molecular target: T12, PIM3 (Homo sapiens, UniProt Q86V86)
T12 construct: purchased DiscoveRx Corporation (KinomeScan)
Outline: as §1

FGR = molecular target: T13, FGR (Homo sapiens, UniProt P09769)
T13 construct: purchased DiscoveRx Corporation (KinomeScan)
Outline: as §1

PRP4 = molecular target: T14, PRP4 (Homo sapiens, UniProt Q13523)
T14 construct: purchased DiscoveRx Corporation
Outline: as §1

MEK3 = molecular target: T15, MEK3 (Homo sapiens, UniProt P46734)
T15 construct: purchased DiscoveRx Corporation (KinomeScan)
Outline: as §1

GSK3A = molecular target: T16, GSK3A (Homo sapiens, UniProt P49840)
T16 construct: purchased DiscoveRx Corporation (KinomeScan)
Outline: as §1

PCTK2 = molecular target: T17, PCTK2 (Homo sapiens, UniProt Q00537)
T17 construct: purchased DiscoveRx Corporation (KinomeScan panel)
Outline: as §1

MARK2 = molecular target: T18, MARK2 (Homo sapiens, UniProt Q7KZI7)
T18 construct: purchased DiscoveRx Corporation (KinomeScan)
Outline: as §1

PRKD2 = molecular target: T19, PRKD2 (Homo sapiens, UniProt Q9BZL6)
T19 construct: purchased DiscoveRx Corporation (KinomeScan)
Outline: as §1

EGFR(L858R,T790M) = molecular target: T20, EGFR(L858R,T790M) (Homo sapiens, UniProt P00533, L858R/T790M)
T20 construct: purchased DiscoveRx Corporation (KinomeScan)
Outline: as §1

RIPK4 = molecular target: T21, RIPK4 (Homo sapiens, UniProt P57078)
T21 construct: purchased DiscoveRx Corporation
Outline: as §1

HUNK = molecular target: T22, HUNK (Homo sapiens, UniProt P57058)
T22 construct: purchased DiscoveRx Corporation (KinomeScan)
Outline: as §1

YANK3 = molecular target: T23, YANK3 (Homo sapiens, UniProt Q86UX6)
T23 construct: purchased DiscoveRx Corporation (KinomeScan service)
Outline: as §1

PDGFRA = molecular target: T24, PDGFRA (Homo sapiens, UniProt P16234)
T24 construct: purchased DiscoveRx Corporation (KinomeScan panel)
Outline: as §1

LIMK2 = molecular target: T25, LIMK2 (Homo sapiens, UniProt P53671)
T25 construct: purchased DiscoveRx Corporation (KinomeScan)
Outline: as §1

MAP3K4 = molecular target: T26, MAP3K4 (Homo sapiens, UniProt Q9Y6R4)
T26 construct: purchased DiscoveRx Corporation (KinomeScan)
Outline: as §1

PAK4 = molecular target: T27, PAK4 (Homo sapiens, UniProt O96013)
T27 construct: purchased DiscoveRx Corporation (KinomeScan panel)
Outline: as §1

NEK4 = molecular target: T28, NEK4 (Homo sapiens, UniProt P51957)
T28 construct: purchased DiscoveRx Corporation (KinomeScan panel)
Outline: as §1

CLK1 = molecular target: T29, CLK1 (Homo sapiens, UniProt P49759)
T29 construct: purchased DiscoveRx Corporation (KinomeScan)
Outline: as §1

KIT(A829P) = molecular target: T30, KIT(A829P) (Homo sapiens, UniProt P10721, A829P)
T30 construct: purchased DiscoveRx Corporation (KinomeScan)
Outline: as §1

[1] = molecular target: T31, ABL1(F317L)-phosphorylated (Homo sapiens, UniProt P00519, F317L)
T31 construct: purchased DiscoveRx Corporation (KinomeScan)
Outline: as §1

CAMK1G = molecular target: T32, CAMK1G (Homo sapiens, UniProt Q96NX5)
T32 construct: purchased DiscoveRx Corporation (KinomeScan)
Outline: as §1

FGFR1 = molecular target: T33, FGFR1 (Homo sapiens, UniProt P11362)
T33 construct: purchased DiscoveRx Corporation (KinomeScan)
Outline: as §1

CSNK1E = molecular target: T34, CSNK1E (Homo sapiens, UniProt P49674)
T34 construct: purchased DiscoveRx Corporation (KinomeScan)
Outline: as §1

RIPK5 = molecular target: T35, RIPK5 (Homo sapiens, UniProt Q6XUX3)
T35 construct: purchased DiscoveRx Corporation
Outline: as §1

EPHB1 = molecular target: T36, EPHB1 (Homo sapiens, UniProt P54762)
T36 construct: purchased DiscoveRx Corporation (KinomeScan)
Outline: as §1

T13 sequence (P09769 whole entry): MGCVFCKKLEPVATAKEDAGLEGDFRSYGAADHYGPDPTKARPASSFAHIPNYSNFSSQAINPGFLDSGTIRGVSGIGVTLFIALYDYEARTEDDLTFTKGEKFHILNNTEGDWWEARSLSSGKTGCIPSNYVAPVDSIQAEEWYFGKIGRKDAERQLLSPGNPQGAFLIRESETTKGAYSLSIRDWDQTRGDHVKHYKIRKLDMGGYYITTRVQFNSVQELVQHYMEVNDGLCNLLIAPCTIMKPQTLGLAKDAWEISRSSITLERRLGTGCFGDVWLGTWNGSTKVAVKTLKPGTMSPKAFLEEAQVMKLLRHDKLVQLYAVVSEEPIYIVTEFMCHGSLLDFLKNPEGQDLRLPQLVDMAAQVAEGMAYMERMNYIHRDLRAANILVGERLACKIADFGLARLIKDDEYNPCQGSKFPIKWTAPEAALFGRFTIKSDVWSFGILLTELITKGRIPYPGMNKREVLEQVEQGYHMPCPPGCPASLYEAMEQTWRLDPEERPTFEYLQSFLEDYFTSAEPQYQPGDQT
T30 sequence (P10721 26-976 A829P): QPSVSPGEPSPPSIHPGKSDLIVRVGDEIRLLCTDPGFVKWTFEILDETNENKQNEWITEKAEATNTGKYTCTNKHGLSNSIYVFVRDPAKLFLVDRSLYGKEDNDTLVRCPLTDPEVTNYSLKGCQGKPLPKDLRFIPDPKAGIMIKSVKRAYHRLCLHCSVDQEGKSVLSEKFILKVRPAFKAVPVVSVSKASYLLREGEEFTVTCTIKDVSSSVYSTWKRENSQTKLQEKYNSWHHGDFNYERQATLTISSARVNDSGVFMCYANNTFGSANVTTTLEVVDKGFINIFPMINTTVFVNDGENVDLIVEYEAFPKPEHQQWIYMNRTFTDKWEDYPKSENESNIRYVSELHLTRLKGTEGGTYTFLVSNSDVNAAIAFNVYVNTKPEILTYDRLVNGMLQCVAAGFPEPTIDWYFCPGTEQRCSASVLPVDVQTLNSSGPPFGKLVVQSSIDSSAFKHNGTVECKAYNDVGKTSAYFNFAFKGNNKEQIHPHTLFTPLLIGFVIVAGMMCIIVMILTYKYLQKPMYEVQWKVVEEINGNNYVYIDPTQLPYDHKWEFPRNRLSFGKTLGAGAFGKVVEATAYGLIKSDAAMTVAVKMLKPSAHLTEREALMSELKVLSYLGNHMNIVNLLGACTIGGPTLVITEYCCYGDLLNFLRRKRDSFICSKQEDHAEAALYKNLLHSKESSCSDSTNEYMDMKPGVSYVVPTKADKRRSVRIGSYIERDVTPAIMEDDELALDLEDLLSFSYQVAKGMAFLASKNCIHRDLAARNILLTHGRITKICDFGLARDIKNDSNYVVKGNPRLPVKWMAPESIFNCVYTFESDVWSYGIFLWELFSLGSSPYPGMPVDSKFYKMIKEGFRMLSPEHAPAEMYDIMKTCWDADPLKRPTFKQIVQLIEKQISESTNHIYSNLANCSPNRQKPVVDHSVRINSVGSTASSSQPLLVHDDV
T17 sequence (Q00537 whole entry): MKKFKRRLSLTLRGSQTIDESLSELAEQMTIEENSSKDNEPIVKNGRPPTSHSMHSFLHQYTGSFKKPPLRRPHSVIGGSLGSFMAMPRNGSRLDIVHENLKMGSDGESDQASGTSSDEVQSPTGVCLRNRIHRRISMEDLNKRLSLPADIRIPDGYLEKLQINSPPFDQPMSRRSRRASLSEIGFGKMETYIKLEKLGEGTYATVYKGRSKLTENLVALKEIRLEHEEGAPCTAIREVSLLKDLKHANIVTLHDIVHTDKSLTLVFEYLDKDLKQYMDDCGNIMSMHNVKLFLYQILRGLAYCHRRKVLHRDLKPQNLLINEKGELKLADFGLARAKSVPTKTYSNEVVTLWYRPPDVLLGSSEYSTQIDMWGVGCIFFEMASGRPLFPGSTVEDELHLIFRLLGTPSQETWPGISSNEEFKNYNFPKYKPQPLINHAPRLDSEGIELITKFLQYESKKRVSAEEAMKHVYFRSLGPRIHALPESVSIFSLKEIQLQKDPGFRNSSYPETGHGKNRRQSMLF
T35 sequence (Q6XUX3 whole entry): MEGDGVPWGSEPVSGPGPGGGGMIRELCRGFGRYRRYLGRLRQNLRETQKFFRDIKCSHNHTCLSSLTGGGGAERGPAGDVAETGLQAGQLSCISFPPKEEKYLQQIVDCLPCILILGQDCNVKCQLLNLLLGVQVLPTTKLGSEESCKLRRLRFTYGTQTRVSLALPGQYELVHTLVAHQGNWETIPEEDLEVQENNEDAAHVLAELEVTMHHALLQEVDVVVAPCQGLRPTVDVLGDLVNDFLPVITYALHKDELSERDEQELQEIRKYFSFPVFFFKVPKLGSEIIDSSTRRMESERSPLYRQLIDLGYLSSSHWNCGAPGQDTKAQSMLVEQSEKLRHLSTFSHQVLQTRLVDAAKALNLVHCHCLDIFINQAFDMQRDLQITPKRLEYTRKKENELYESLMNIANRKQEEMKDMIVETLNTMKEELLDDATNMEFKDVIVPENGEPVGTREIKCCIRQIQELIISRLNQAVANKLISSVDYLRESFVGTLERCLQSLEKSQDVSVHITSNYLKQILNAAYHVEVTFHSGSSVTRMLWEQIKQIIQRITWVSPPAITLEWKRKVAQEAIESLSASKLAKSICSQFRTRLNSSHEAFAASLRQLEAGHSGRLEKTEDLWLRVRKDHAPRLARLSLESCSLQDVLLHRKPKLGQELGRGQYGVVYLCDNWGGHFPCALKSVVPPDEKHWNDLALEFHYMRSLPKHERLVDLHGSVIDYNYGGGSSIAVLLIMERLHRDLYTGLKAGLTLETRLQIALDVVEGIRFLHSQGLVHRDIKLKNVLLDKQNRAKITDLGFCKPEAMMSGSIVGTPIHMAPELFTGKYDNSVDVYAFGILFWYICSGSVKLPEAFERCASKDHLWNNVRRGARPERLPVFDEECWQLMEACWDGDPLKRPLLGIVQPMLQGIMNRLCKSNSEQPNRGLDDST
T24 sequence (P16234 24-1089): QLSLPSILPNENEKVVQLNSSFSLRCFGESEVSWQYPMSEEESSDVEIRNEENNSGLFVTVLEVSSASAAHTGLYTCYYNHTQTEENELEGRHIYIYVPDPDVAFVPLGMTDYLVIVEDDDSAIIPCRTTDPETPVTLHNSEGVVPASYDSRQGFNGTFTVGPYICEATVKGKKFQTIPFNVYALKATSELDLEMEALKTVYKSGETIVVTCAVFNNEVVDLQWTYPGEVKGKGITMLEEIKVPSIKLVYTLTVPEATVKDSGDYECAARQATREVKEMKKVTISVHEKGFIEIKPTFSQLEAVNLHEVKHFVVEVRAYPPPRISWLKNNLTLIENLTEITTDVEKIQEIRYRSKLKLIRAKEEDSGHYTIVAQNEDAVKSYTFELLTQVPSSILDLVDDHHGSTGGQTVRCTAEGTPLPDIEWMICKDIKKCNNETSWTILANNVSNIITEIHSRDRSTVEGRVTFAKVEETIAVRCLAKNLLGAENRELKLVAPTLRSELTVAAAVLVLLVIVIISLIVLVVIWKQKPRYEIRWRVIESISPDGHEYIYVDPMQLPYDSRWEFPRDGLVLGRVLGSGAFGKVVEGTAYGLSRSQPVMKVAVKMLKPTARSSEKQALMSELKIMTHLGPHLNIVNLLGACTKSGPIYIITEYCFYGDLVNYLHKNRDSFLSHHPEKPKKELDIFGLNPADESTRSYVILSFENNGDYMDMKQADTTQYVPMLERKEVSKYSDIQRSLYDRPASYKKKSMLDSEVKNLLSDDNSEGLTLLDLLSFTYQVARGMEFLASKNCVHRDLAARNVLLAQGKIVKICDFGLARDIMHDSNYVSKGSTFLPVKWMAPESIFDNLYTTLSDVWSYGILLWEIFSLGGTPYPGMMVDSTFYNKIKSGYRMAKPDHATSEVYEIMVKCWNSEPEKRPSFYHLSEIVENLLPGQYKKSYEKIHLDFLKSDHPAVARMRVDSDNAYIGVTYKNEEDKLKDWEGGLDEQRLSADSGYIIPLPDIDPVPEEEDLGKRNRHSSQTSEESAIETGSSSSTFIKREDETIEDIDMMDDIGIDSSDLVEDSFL
T3 sequence (Q07912 whole entry): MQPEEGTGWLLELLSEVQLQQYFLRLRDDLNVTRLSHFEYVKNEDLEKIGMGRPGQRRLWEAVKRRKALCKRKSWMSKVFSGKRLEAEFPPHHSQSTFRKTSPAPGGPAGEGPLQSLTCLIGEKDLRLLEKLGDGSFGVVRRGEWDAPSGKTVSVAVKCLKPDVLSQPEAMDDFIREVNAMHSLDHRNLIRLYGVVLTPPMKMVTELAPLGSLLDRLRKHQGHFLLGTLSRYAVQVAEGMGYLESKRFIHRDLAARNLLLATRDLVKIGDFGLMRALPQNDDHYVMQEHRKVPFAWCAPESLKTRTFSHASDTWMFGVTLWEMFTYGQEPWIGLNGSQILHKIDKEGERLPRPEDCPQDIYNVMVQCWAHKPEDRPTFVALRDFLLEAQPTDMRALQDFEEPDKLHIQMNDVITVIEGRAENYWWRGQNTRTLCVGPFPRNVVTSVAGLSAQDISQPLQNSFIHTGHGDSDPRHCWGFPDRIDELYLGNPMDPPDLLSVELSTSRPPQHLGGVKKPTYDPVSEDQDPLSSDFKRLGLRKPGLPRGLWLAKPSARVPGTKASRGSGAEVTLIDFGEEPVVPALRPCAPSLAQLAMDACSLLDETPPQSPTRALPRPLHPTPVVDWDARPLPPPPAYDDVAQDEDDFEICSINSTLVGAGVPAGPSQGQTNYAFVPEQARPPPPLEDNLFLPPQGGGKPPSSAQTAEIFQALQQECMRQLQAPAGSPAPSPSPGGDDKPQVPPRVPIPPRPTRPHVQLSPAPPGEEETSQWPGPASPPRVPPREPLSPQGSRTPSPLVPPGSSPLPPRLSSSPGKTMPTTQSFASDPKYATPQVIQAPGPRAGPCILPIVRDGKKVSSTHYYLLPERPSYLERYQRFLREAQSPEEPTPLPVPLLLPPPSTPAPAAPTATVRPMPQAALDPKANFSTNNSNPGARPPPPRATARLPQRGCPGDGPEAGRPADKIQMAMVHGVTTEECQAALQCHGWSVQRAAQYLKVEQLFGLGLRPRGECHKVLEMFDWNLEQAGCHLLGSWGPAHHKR

CCOP(=O)(CN1CCC(COc2cc3nccc(Oc4ccc(NC(=O)C5(C(=O)Nc6ccc(F)cc6)CC5)cc4F)c3cc2OC)CC1)OCC [Example 10, N1-[4-[[7-[[1-(diethoxyphosphorylmethyl)-4-piperidinyl]methoxyl]-6-methoxyl-4-quinolyl]oxyl]-3-fluorophenyl]-N1′-(4-fluorophenyl)cyclopropane-1,1-dicarboxamide]
% Ctrl@1000 nM (MEK4): 100 % Ctrl
% Ctrl@1000 nM (CAMK2A): 100 % Ctrl
% Ctrl@1000 nM (TNK2): 94 % Ctrl
% Ctrl@1000 nM (RET (V804L)): 0.35 % Ctrl
% Ctrl@1000 nM (EGFR(L858R)): 59 % Ctrl
% Ctrl@1000 nM (PDGFRB): 0 % Ctrl
% Ctrl@1000 nM (DDR1): 0 % Ctrl
% Ctrl@1000 nM (PIK3CA): 100 % Ctrl
% Ctrl@1000 nM (MAP4K4): 100 % Ctrl
% Ctrl@1000 nM (PIK3C2B): 100 % Ctrl
% Ctrl@1000 nM (NDR1): 100 % Ctrl
% Ctrl@1000 nM (PIM3): 67 % Ctrl
% Ctrl@1000 nM (FGR): 35 % Ctrl
% Ctrl@1000 nM (PRP4): 76 % Ctrl
% Ctrl@1000 nM (MEK3): 100 % Ctrl
% Ctrl@1000 nM (GSK3A): 100 % Ctrl
% Ctrl@1000 nM (PCTK2): 100 % Ctrl
% Ctrl@1000 nM (MARK2): 100 % Ctrl
% Ctrl@1000 nM (PRKD2): 100 % Ctrl
% Ctrl@1000 nM (EGFR(L858R,T790M)): 100 % Ctrl
% Ctrl@1000 nM (RIPK4): 89 % Ctrl
% Ctrl@1000 nM (HUNK): 100 % Ctrl
% Ctrl@1000 nM (YANK3): 100 % Ctrl
% Ctrl@1000 nM (PDGFRA): 1.8 % Ctrl
% Ctrl@1000 nM (LIMK2): 100 % Ctrl
% Ctrl@1000 nM (MAP3K4): 100 % Ctrl
% Ctrl@1000 nM (PAK4): 100 % Ctrl
% Ctrl@1000 nM (NEK4): 100 % Ctrl
% Ctrl@1000 nM (CLK1): 89 % Ctrl
% Ctrl@1000 nM (KIT(A829P)): 64 % Ctrl
% Ctrl@1000 nM [1]: 69 % Ctrl
% Ctrl@1000 nM (CAMK1G): 88 % Ctrl
% Ctrl@1000 nM (FGFR1): 100 % Ctrl
% Ctrl@1000 nM (CSNK1E): 100 % Ctrl
% Ctrl@1000 nM (RIPK5): 82 % Ctrl
% Ctrl@1000 nM (EPHB1): 4.6 % Ctrl
